In patent US11001561B2, “Pyrimidinone derivatives as SHP2 antagonists” (MERCK PATENT GMBH, priority 2019, dated 2021) one finds IC50 data, which are given here for 30 compounds.

The target in assay [1] is Full length SHP2 protein (Recombinant Human SHP-2) (Homo sapiens (Human), UniProt Q06124). As to the kind of experiment: SHP2 biochemical assay (DiFMUP substrate, activating peptide IRSI_2pY). The settings on record: activating peptide IRSI_2pY 140 nM, DiFMUP, 60 min.
Method: The inhibition of SHP2 by compounds of the invention was monitored using the surrogate substrate DiFMUP after protein activation by a peptide bearing two appropriately spaced phosphotyrosine. […] The generation of the DiFMU product by activated SHP2 was monitored through Fluorescence measurement with a PerkinElmer Envision reader. The inhibitor dose response curves were analyzed with Genedata Screener.
A further assay deals with pERK1/2 in KYSE520 cells. The assay is described as follows: p-Erk cellular assay in KYSE520 (Mesoscale). To be noted: read-out: pERK1/2 in Cell KYSE520 IC50. Type of assay: cell-based. The protocol:
p-Erk Cellular Assay in KYSE520: The effect of SHP2 inhibitors on pERK level was assessed using phospho-specific antibody using Mesoscale quantification platform. For measuring change in pERK levels using mesoscale, 30,000 cells of KYSE520 cells were plated in 96-well tissue culture treated plate in 175 μl volume of media. After an overnight incubation at 37° C., various SHP2 inhibitors were added in different concentration to each well maintaining duplicate wells across plates and incubated with compounds for 2 h at 37° C. followed by a wash with ice cold PBS buffer. The cells were then lysed in lysis buffer and processed and analyzed for p-ERK/ERK as per manufacturer's instructions (Mesoscale discovery, cat No. […]-3).

Setting [2] is: read-out: SHP-2 biochemical assay IC50.
The mark [3] stands for this setting: SHP-2 biochemical assay IC50 (μM).

Structures can show the parent of a compound that is named as a salt. Where two headings read alike, the source gives them in different places.

For the compound `Cc1nc(N2CCC3(CCC3N)CC2)cc(=O)n1-c1cccc(Cl)c1Cl` (stereo not drawn) [Compound 35, 6-{1-amino-7-azaspiro[3.5]nonan-7-yl}-3-(2,3-dichlorophenyl)-2-methyl-3,4-dihydropyrimidin-4-one], the IC50 amounted to 0.56 µM in assay [1] (setting [2]) and 0.6 µM in the assay on pERK1/2 in KYSE520 cells (Homo sapiens, KYSE-520, 2 h).
Turning to `Cc1c(N2CCC3(CC2)Cc2ccccc2[C@H]3N)nc(C)n(-c2cccc(C#N)c2Cl)c1=O` [Compound 108, 3-4-[(1S)-1-amino-1,3-dihydrospiro[indene-2,4′-piperidin]-1′-yl]-2,5-dimethyl-6-oxo-1,6-dihydropyrimidin-1-yl-2-chlorobenzonitrile], the IC50 in assay [1] (setting [3]) stood at 0.007 µM; in the assay on pERK1/2 in KYSE520 cells (Homo sapiens, KYSE-520, 2 h), 0.032 µM.
For the compound `Cc1nc(N2CCC3(CC2)Cc2ccccc2[C@H]3N)cc(=O)n1-c1cccc(Cl)c1Cl` (single isomer, unassigned) [Compound 119b], the IC50 in assay [1] (setting [2]) came out at 0.0008 µM; in the assay on pERK1/2 in KYSE520 cells (Homo sapiens, KYSE-520, 2 h), 0.005 µM.
For `Cc1c(N2CCC3(CC2)Cc2ccccc2[C@H]3N)nc(C)n(-c2cccc(Br)c2Cl)c1=O` [Compound 104, 6-[(1S)-1-amino-1,3-dihydrospiro[indene-2,4′-piperidin]-1′-yl]-3-(3-bromo-2-chlorophenyl)-2,5-dimethyl-3,4-dihydropyrimidin-4-one] the same measures were 0.005 µM and 0.026 µM.
Regarding `Cc1nc(N2CCC(C)(N)CC2)cc(=O)n1-c1cccc(Cl)c1Cl` (single isomer, unassigned) [Compound 2b, (3M)-6-(4-amino-4-methylpiperidin-1-yl)-3-(2,3-dichlorophenyl)-2-methyl-3,4-dihydropyrimidin-4-one], in the assay with pERK1/2 in KYSE520 cells (Homo sapiens, KYSE-520, 2 h), the IC50 was determined as 4.25 µM.
For the compound `Cc1nc(N2CCC3(CCC[C@H]3N)CC2)cc(=O)n1-c1cccc(Cl)c1Cl` [Compound 27, 6-{(R)-1-amino-8-azaspiro[4.5]decan-8-yl}-3-(2,3-dichlorophenyl)-2-methyl-3,4-dihydropyrimidin-4-one], the IC50 was found to be 0.051 µM in assay [1] (setting [2]) and 0.239 µM with pERK1/2 in KYSE520 cells (Homo sapiens, KYSE-520, 2 h).
Regarding `Cc1c(N2CCC3(CC2)Oc2cnccc2[C@H]3N)nc(C)n(-c2cccc(Cl)c2Cl)c1=O` (single isomer, unassigned) [Compound 80a], the IC50 is 1.4 µM in assay [1] (setting [3]) and over 10 µM with pERK1/2 in KYSE520 cells (Homo sapiens, KYSE-520, 2 h).
For `Cc1c(N2CCC3(CCC[C@H]3N)CC2)nc(N)n(-c2cccc(Cl)c2Cl)c1=O` (single isomer, unassigned) [Compound 78d] the same measures were 0.19 µM and 1.33 µM.
As for `Cc1c(N2CCC3(CC2)CO[C@@H](C)[C@H]3N)nc(C)n(-c2cccc(Cl)c2Br)c1=O` [Compound 97, 6-((3S,4S)-4-Amino-3-methyl-2-oxa-8-aza-spiro[4.5]dec-8-yl)-3-(2-bromo-3-chloro-phenyl)-2,5-dimethyl-3H-pyrimidin-4-one], the IC50 was found to be 0.078 µM in assay [1] (setting [2]) and 1.3 µM in the assay with pERK1/2 in KYSE520 cells (Homo sapiens, KYSE-520, 2 h).
Take `Cc1nc(N2CCC3(CCC[C@H]3N)CC2)cc(=O)n1-c1cccc(Cl)c1Cl` (single isomer, unassigned) [Compound 62b]: the IC50 amounted to 0.081 µM in assay [1] (setting [3]) and 0.526 µM in the assay on pERK1/2 in KYSE520 cells (Homo sapiens, KYSE-520, 2 h).
`COc1c(F)ccc(-n2c(C)nc(N3CCC4(CC3)Cc3ccccc3[C@H]4N)c(C)c2=O)c1F` [Compound 105, 6-[(1S)-1-amino-1,3-dihydrospiro[indene-2,4′-piperidin]-1′-yl]-3-(2,4-difluoro-3-methoxyphenyl)-2,5-dimethyl-3,4-dihydropyrimidin-4-one]: the IC50 in assay [1] (setting [2]) turned out to be 0.006 µM; in the assay on pERK1/2 in KYSE520 cells (Homo sapiens, KYSE-520, 2 h) it was 0.01 µM.
For `Cc1c(N2CCC(C)(CN)CC2)nc(C)n(-c2cccc(Cl)c2Cl)c1=O` [Compound 18, 6-[4-(aminomethyl)-4-methylpiperidin-1-yl]-3-(2,3-dichlorophenyl)-2,5-dimethyl-3,4-dihydropyrimidin-4-one] the same measures were 0.37 µM and 1.32 µM.
For `Cc1nc(N2CCC3(CC2)CO[C@@H](C)[C@H]3N)nc(=O)n1-c1cccc(Cl)c1Cl` (single isomer, unassigned) [Compound 37a] the same measures were 1.1 µM and 11.3 µM.
In the same order, the values of `Cc1c(N2CCC3(CC2)CO[C@@H](C)[C@H]3N)nc(N)n(-c2cccc(Cl)c2Cl)c1=O` [Compound 116, 2-Amino-6-((3S,4S)-4-amino-3-methyl-2-oxa-8-aza-spiro[4.5]dec-8-yl)-3-(2,3-dichloro-phenyl)-5-methyl-3H-pyrimidin-4-one] are 0.2 µM and 2.19 µM.
For `Cc1c(N2CCC3(CC2)Cc2ccccc2[C@H]3N)nc(C)n(-c2ccc(F)c(F)c2Cl)c1=O` [Compound 113, 6-[(1S)-1-amino-1,3-dihydrospiro[indene-2,4′-piperidin]-1′-yl)-3-(2-chloro-3,4-difluorophenyl)-2,5-dimethyl-3,4-dihydropyrimidin-4-one], the IC50 was found to be 0.006 µM in assay [1] (setting [2]) and 0.015 µM in the assay on pERK1/2 in KYSE520 cells (Homo sapiens, KYSE-520, 2 h).
On to `[2H]C([2H])([2H])c1c(N2CCC3(CC2)CO[C@@H](C)[C@H]3N)nc(C)n(-c2cccc(Cl)c2Cl)c1=O` (single isomer, unassigned) [Compound 63b], for which the IC50 in assay [1] (setting [3]) was found to be 0.015 µM; with pERK1/2 in KYSE520 cells (2 h), 0.177 µM.
`Cc1c(N2CCC3(CC2)Cc2ccccc2[C@H]3N)nc(C)n(-c2cccc(F)c2Cl)c1=O` [Compound 112, 6-[(1S)-1-amino-1,3-dihydrospiro[indene-2,4′-piperidin]-1′-yl]-3-(2-chloro-3-fluorophenyl)-2,5-dimethyl-3,4-dihydropyrimidin-4-one]: the IC50 was determined as 0.004 µM in assay [1] (setting [2]) and 0.014 µM with pERK1/2 in KYSE520 cells (Homo sapiens, KYSE-520, 2 h).
In the same order, the values of `Cc1c(N2CCC3(CC2)CO[C@@H](C)[C@H]3N)nc(C)n(-c2cccc(Br)c2Cl)c1=O` [Compound 95, 6-((3S,4S)-4-Amino-3-methyl-2-oxa-8-aza-spiro[4.5]dec-8-yl)-3-(3-bromo-2-chloro-phenyl)-2,5-dimethyl-3H-pyrimidin-4-one] are 0.027 µM and 0.604 µM.
In the same order, the values of `Cc1c(F)ccc(-n2c(C)nc(N3CCC4(CC3)Cc3ccccc3[C@H]4N)c(C)c2=O)c1Cl` [Compound 110, 6-[(1S)-1-amino-1,3-dihydrospiro[indene-2,4′-piperidin]-1′-yl]-3-(2-chloro-4-fluoro-3-methylphenyl)-2,5-dimethyl-3,4-dihydropyrimidin-4-one] are 0.002 µM and 0.007 µM.
Consider `Cc1c(N2CCC3(CC2)c2ncccc2C[C@H]3N)nc(C)n(-c2cccc(Cl)c2Cl)c1=O` [Compound 75, (3M)-6-[(6R)-6-amino-5,6-dihydrospiro[cyclopenta[b]pyridine-7,4′-piperidin]-1′-yl]-3-(2,3-dichlorophenyl)-2,5-dimethyl-3,4-dihydropyrimidin-4-one], for which, in the assay with pERK1/2 in KYSE520 cells (2 h), the IC50 was found to be 0.824 µM.
Consider `Cc1nc(N2CCC(C)(N)CC2)cc(=O)n1-c1cccc(Cl)c1Cl` [Compound 2, 6-(4-amino-4-methylpiperidin-1-yl)-3-(2,3-dichlorophenyl)-2-methyl-3,4-dihydropyrimidin-4-one], for which, in the assay with pERK1/2 in KYSE520 cells (Homo sapiens, KYSE-520, 2 h), the IC50 turned out to be 5.57 µM.
In the case of `Cc1c(N2CCC3(CC2)Cc2ccccc2[C@@H]3N)nc(C)n(-c2cccc(Cl)c2Cl)c1=O` (atropisomer, axis not shown) [Compound 74d, (3P)-6-[(1R)-1-amino-1,3-dihydrospiro[indene-2,4′-piperidin]-1′-yl]-3-(2,3-dichlorophenyl)-2,5-dimethyl-3,4-dihydropyrimidin-4-one], the IC50 in assay [1] (setting [3]) is over 10 µM.
`Cc1c(N2CCc3cc(N)ccc3C2)nc(C)n(-c2cccc(Cl)c2Cl)c1=O` [Compound 83, 6-(6-amino-1,2,3,4-tetrahydroisoquinolin-2-yl)-3-(2,3-dichlorophenyl)-2,5-dimethyl-3,4-dihydropyrimidin-4-one]: the IC50 in assay [1] (setting [2]) is over 10 µM.
The same measure, in the same setting: in the case of `Cc1nc(N2CCC3(CC2)CO[C@@H](C)[C@H]3N)cc(=O)n1-c1ccccc1` [Compound 7, 6-[(3S,4S)-4-amino-3-methyl-2-oxa-8-azaspiro[4.5]decan-8-yl]-2-methyl-3-phenyl-3,4-dihydropyrimidin-4-one] it was 4.8 µM; in that of `Cc1c(N2CCC3(CC2)CC3N)nc(C)n(-c2cccc(Cl)c2Cl)c1=O` (stereo not drawn) [Compound 89, 6-1-amino-6-azaspiro[2.5]octan-6-yl-3-(2,3-dichlorophenyl)-2,5-dimethyl-3,4-dihydropyrimidin-4-one], 1.3 µM.
With `Cc1nc(N2CCC3(CC2)CC3CN)cc(=O)n1-c1cccc(Cl)c1Cl` (stereo not drawn) [Compound 13, 6-[1-(aminomethyl)-6-azaspiro[2.5]octan-6-yl]-3-(2,3-dichlorophenyl)-2-methyl-3,4-dihydropyrimidin-4-one], the IC50 in assay [1] (setting [2]) was determined as 4.3 µM.
The same measure, in the same setting: in the case of “(3M)-6-[(3aR,6aS)-3a-(aminomethyl)-5- (hydroxymethyl)- octahydrocyclopenta[c]pyrrol-2-yl]-3- (2,3-dichlorophenyl)-2,5-dimethyl-3,4- dihydropyrimidin-4-one [Compound 101]” it was 0.23 µM; in that of `Cc1c(N2CCC3(CC2)CO[C@@H](C)[C@H]3N)nc(C)n(-c2ccc3nccnc3c2)c1=O` [Compound 53, 6-((3S,4S)-4-Amino-3-methyl-2-oxa-8-aza-spiro[4.5]dec-8-yl)-2,5-dimethyl-3-quinoxalin-6-yl-3H-pyrimidin-4-one], 6.1 µM.
Consider `Cc1nc(N2CCC(C)(N3CC[C@H](O)C3)CC2)cc(=O)n1-c1cccc(Cl)c1Cl` (single isomer, unassigned) [Compound 72a], for which the IC50 in assay [1] (setting [3]) was over 10 µM.
Consider `Cc1nc(N2CCCC(C)(N)CC2)cc(=O)n1-c1cccc(Cl)c1Cl` (stereo not drawn) [Compound 21, 6-(4-amino-4-methylazepan-1-yl)-3-(2,3-dichlorophenyl)-2-methyl-3,4-dihydropyrimidin-4-one hydrochloride], for which the IC50 in assay [1] (setting [2]) was 1.6 µM.
